Data from patent publication US9738634B2, “Heterocyclic amide compound and herbicide” (SYNGENTA PARTICIPATIONS AG, priority 2013, dated 2017).

Key:
Assay type in all cases: in vivo
fig-leafed goosefoot [1] = assay: Test Example 3: weedkilling efficacy through soil treatment; M: fig-leafed goosefoot; conditions: treatment dosage 315 g/ha
In short: (§1)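 Crop and weed responses were judged three weeks after a uniform surface spray of the water-diluted emulsion at the given g/ha rate. Seeds sat beneath about 1.5 cm of sterilized diluvial soil, and boxes stood in a greenhouse at 25 to 30° C.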

corn [2] = assay: Test Example 3: soil treatment, effect on crop; c: corn; conditions: treatment dosage 315 g/ha
In short: as §1

beet = assay: Test Example 4: foliar treatment, effect on crop; f: beet; conditions: treatment dosage 315 g/ha
In short: (§2)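 Seeds are spot-sown into sterilized diluvial soil and covered with about 1.5 cm of soil. After 14 days' greenhouse growth at 25 to 30° C, plants are sprayed on stems and leaves with diluted emulsion at the stated g/ha rate, then scored at 3 weeks.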

bulrush [3] = assay: Test Example 2: weedkilling efficacy, growth period weed treatment in the submerged state; B: bulrush; conditions: treatment dosage 252 g/ha
In short: (§3)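 First, alluvial soil in pots is flooded to 4 cm and mixed seed is sown. Next, plants grow in a greenhouse at 25 to 30° C until the 1-2 leaf stage. Then diluted emulsion is applied onto the water surface at the given g/ha rate, and injury is assessed after 3 weeks.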

oval-leafed pondweed [4] = assay: Test Example 1: weedkilling efficacy, preemergent weed treatment in the submerged state; C: oval-leafed pondweed; conditions: treatment dosage 252 g/ha
In short: (§4)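 Emulsion diluted with water to the specified per-hectare dosage is applied onto flood water (4 cm) over alluvial soil on the sowing day, with barnyard grass, bulrush and pondweed seeded and rice (2.5-leaf) transplanted; plants grow at 25–30 °C and are rated at 3 weeks.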

crabgrass [5] = assay: Test Example 3: weedkilling efficacy through soil treatment; D: crabgrass; conditions: treatment dosage 315 g/ha
In short: as §1

Indian mallow [6] = assay: Test Example 4: weedkilling efficacy by foliar treatment; K: Indian mallow; conditions: treatment dosage 315 g/ha
In short: as §2

wheat [7] = assay: Test Example 4: foliar treatment, effect on crop; e: wheat; conditions: treatment dosage 315 g/ha
In short: as §2

transplanted rice = assay: Test Example 1: preemergent weed treatment in the submerged state, effect on crop; a: transplanted rice; conditions: treatment dosage 252 g/ha
In short: as §4

chickweed [8] = assay: Test Example 4: weedkilling efficacy by foliar treatment; N: chickweed; conditions: treatment dosage 315 g/ha
In short: as §2

Italian ryegrass [9] = assay: Test Example 4: weedkilling efficacy by foliar treatment; I: Italian ryegrass; conditions: treatment dosage 315 g/ha
In short: as §2

green foxtail [10] = assay: Test Example 3: weedkilling efficacy through soil treatment; E: green foxtail; conditions: treatment dosage 315 g/ha
In short: as §1

wild oat [11] = assay: Test Example 3: weedkilling efficacy through soil treatment; G: wild oat; conditions: treatment dosage 315 g/ha
In short: as §1

bulrush [12] = assay: Test Example 1: weedkilling efficacy, preemergent weed treatment in the submerged state; B: bulrush; conditions: treatment dosage 252 g/ha
In short: as §4

redroot pigweed [13] = assay: Test Example 4: weedkilling efficacy by foliar treatment; L: redroot pigweed; conditions: treatment dosage 315 g/ha
In short: as §2

barnyard grass [14] = assay: Test Example 2: weedkilling efficacy, growth period weed treatment in the submerged state; A: barnyard grass; conditions: treatment dosage 252 g/ha
In short: as §3

wheat [15] = assay: Test Example 3: soil treatment, effect on crop; e: wheat; conditions: treatment dosage 315 g/ha
In short: as §1

corn [16] = assay: Test Example 4: foliar treatment, effect on crop; c: corn; conditions: treatment dosage 315 g/ha
In short: as §2

wild oat [17] = assay: Test Example 4: weedkilling efficacy by foliar treatment; G: wild oat; conditions: treatment dosage 315 g/ha
Procedure: Testing of Weedkilling Efficacy by Foliar Treatment
Sterilized diluvial soil was introduced into 21 cm long, 13 cm wide, 7 cm deep plastic boxes, and seeds of crabgrass, green foxtail, barnyard grass, wild oat, black-grass, Italian ryegrass, common wind-grass, Indian mallow, redroot pigweed, fig-leafed goosefoot, chickweed, catchweed, birds-eye speedwell, corn, soybean, rice, wheat, beet and rapeseed were each spot-sown, and covered with about 1.5 cm of soil, then the plants were grown in a greenhouse at 25 to 30° C.
After they had grown for 14 days, emulsions of compounds of the present invention prepared according to compounding example 2 were diluted with water to give the specified dosages, and applied uniformly onto the stem and leaf parts with a small sprayer. 3 weeks after the pesticide treatment the effect on each type of plant was investigated on the basis of the assessment criteria of test example 1.
A: barnyard grass, B: bulrush, C: oval-leafed pondweed, D: crabgrass, E: green foxtail, F: barnyard grass, G: wild oat, H: black-grass, I: Italian ryegrass, J: common wind-grass, K: Indian mallow, L: redroot pigweed, M: fig-leafed goosefoot, N: chickweed, O: catchweed, p: birds-eye speedwell, a: transplanted rice, b: directly sown rice, c: corn, d: soybean, e: wheat, f: beet, g: rapeseed
Further, pesticide dosage (g/ha) indicates the concentration regulated such that treatment was with only the stated number of grams (g), when calculated per hectare (ha).

catchweed [18] = assay: Test Example 3: weedkilling efficacy through soil treatment; O: catchweed; conditions: treatment dosage 315 g/ha
In short: as §1

Italian ryegrass [19] = assay: Test Example 3: weedkilling efficacy through soil treatment; I: Italian ryegrass; conditions: treatment dosage 315 g/ha
In short: as §1

chickweed [20] = assay: Test Example 3: weedkilling efficacy through soil treatment; N: chickweed; conditions: treatment dosage 315 g/ha
In short: as §1

soybean [21] = assay: Test Example 3: soil treatment, effect on crop; d: soybean; conditions: treatment dosage 315 g/ha
In short: as §1

barnyard grass [22] = assay: Test Example 1: weedkilling efficacy, preemergent weed treatment in the submerged state; A: barnyard grass; conditions: treatment dosage 252 g/ha
In short: as §4

black-grass [23] = assay: Test Example 3: weedkilling efficacy through soil treatment; H: black-grass; conditions: treatment dosage 315 g/ha
In short: as §1

birds-eye speedwell = assay: Test Example 3: weedkilling efficacy through soil treatment; p: birds-eye speedwell; conditions: treatment dosage 315 g/ha
In short: as §1

catchweed [24] = assay: Test Example 4: weedkilling efficacy by foliar treatment; O: catchweed; conditions: treatment dosage 315 g/ha
In short: as §2

green foxtail [25] = assay: Test Example 4: weedkilling efficacy by foliar treatment; E: green foxtail; conditions: treatment dosage 315 g/ha
In short: as §2

Indian mallow [26] = assay: Test Example 3: weedkilling efficacy through soil treatment; K: Indian mallow; conditions: treatment dosage 315 g/ha
In short: as §1

black-grass [27] = assay: Test Example 4: weedkilling efficacy by foliar treatment; H: black-grass; conditions: treatment dosage 315 g/ha
In short: as §2

fig-leafed goosefoot [28] = assay: Test Example 4: weedkilling efficacy by foliar treatment; M: fig-leafed goosefoot; conditions: treatment dosage 315 g/ha
In short: as §2

crabgrass [29] = assay: Test Example 4: weedkilling efficacy by foliar treatment; D: crabgrass; conditions: treatment dosage 315 g/ha
In short: as §2

soybean [30] = assay: Test Example 4: foliar treatment, effect on crop; d: soybean; conditions: treatment dosage 315 g/ha
In short: as §2

oval-leafed pondweed [31] = assay: Test Example 2: weedkilling efficacy, growth period weed treatment in the submerged state; C: oval-leafed pondweed; conditions: treatment dosage 252 g/ha
In short: as §3

directly sown rice [32] = assay: Test Example 3: soil treatment, effect on crop; b: directly sown rice; conditions: treatment dosage 315 g/ha
In short: as §1

directly sown rice [33] = assay: Test Example 4: foliar treatment, effect on crop; b: directly sown rice; conditions: treatment dosage 315 g/ha
In short: as §2

redroot pigweed [34] = assay: Test Example 3: weedkilling efficacy through soil treatment; L: redroot pigweed; conditions: treatment dosage 315 g/ha
In short: as §1

SMILES: CC1=C(c2ccccc2)C(=O)N(C(C)(C)C(=O)Nc2cccc(C(F)(F)F)n2)CO1 [B-2-58]
- M (fig-leafed goosefoot) weedkilling efficacy grade (fig-leafed goosefoot [1]): 4 (weed kill ratio 70% or more, less than 90%)
- c (corn) effect on crop grade (corn [2]): 1 (weed kill ratio 5% or more, less than 20%)
- f (beet) effect on crop grade (beet): 4 (weed kill ratio 70% or more, less than 90%)
- B (bulrush) weedkilling efficacy grade (bulrush [3]): 5 (weed kill ratio 90% or more, (practically complete withering))
- C (oval-leafed pondweed) weedkilling efficacy grade (oval-leafed pondweed [4]): 5 (weed kill ratio 90% or more, (practically complete withering))
- D (crabgrass) weedkilling efficacy grade (crabgrass [5]): 5 (weed kill ratio 90% or more, (practically complete withering))
- K (Indian mallow) weedkilling efficacy grade (Indian mallow [6]): 3 (weed kill ratio 40% or more, less than 70%)
- e (wheat) effect on crop grade (wheat [7]): 1 (weed kill ratio 5% or more, less than 20%)
- a (transplanted rice) effect on crop grade (transplanted rice): 0 (weed kill ratio 5% or less (practically no effect))
- N (chickweed) weedkilling efficacy grade (chickweed [8]): 3 (weed kill ratio 40% or more, less than 70%)
- I (Italian ryegrass) weedkilling efficacy grade (Italian ryegrass [9]): 5 (weed kill ratio 90% or more, (practically complete withering))
- E (green foxtail) weedkilling efficacy grade (green foxtail [10]): 5 (weed kill ratio 90% or more, (practically complete withering))
- G (wild oat) weedkilling efficacy grade (wild oat [11]): 3 (weed kill ratio 40% or more, less than 70%)
- B (bulrush) weedkilling efficacy grade (bulrush [12]): 5 (weed kill ratio 90% or more, (practically complete withering))
- L (redroot pigweed) weedkilling efficacy grade (redroot pigweed [13]): 3 (weed kill ratio 40% or more, less than 70%)
- A (barnyard grass) weedkilling efficacy grade (barnyard grass [14]): 3 (weed kill ratio 40% or more, less than 70%)
- e (wheat) effect on crop grade (wheat [15]): 0 (weed kill ratio 5% or less (practically no effect))
- c (corn) effect on crop grade (corn [16]): 3 (weed kill ratio 40% or more, less than 70%)
- G (wild oat) weedkilling efficacy grade (wild oat [17]): 3 (weed kill ratio 40% or more, less than 70%)
- O (catchweed) weedkilling efficacy grade (catchweed [18]): 0 (weed kill ratio 5% or less (practically no effect))
- I (Italian ryegrass) weedkilling efficacy grade (Italian ryegrass [19]): 5 (weed kill ratio 90% or more, (practically complete withering))
- N (chickweed) weedkilling efficacy grade (chickweed [20]): 4 (weed kill ratio 70% or more, less than 90%)
- d (soybean) effect on crop grade (soybean [21]): 0 (weed kill ratio 5% or less (practically no effect))
- A (barnyard grass) weedkilling efficacy grade (barnyard grass [22]): 5 (weed kill ratio 90% or more, (practically complete withering))
- H (black-grass) weedkilling efficacy grade (black-grass [23]): 4 (weed kill ratio 70% or more, less than 90%)
- P (birds-eye speedwell) weedkilling efficacy grade (birds-eye speedwell): 5 (weed kill ratio 90% or more, (practically complete withering))
- O (catchweed) weedkilling efficacy grade (catchweed [24]): 1 (weed kill ratio 5% or more, less than 20%)
- E (green foxtail) weedkilling efficacy grade (green foxtail [25]): 5 (weed kill ratio 90% or more, (practically complete withering))
- K (Indian mallow) weedkilling efficacy grade (Indian mallow [26]): 1 (weed kill ratio 5% or more, less than 20%)
- H (black-grass) weedkilling efficacy grade (black-grass [27]): 5 (weed kill ratio 90% or more, (practically complete withering))
- M (fig-leafed goosefoot) weedkilling efficacy grade (fig-leafed goosefoot [28]): 3 (weed kill ratio 40% or more, less than 70%)
- D (crabgrass) weedkilling efficacy grade (crabgrass [29]): 5 (weed kill ratio 90% or more, (practically complete withering))
- d (soybean) effect on crop grade (soybean [30]): 3 (weed kill ratio 40% or more, less than 70%)
- C (oval-leafed pondweed) weedkilling efficacy grade (oval-leafed pondweed [31]): 4 (weed kill ratio 70% or more, less than 90%)
- b (directly sown rice) effect on crop grade (directly sown rice [32]): 3 (weed kill ratio 40% or more, less than 70%)
- b (directly sown rice) effect on crop grade (directly sown rice [33]): 4 (weed kill ratio 70% or more, less than 90%)
- L (redroot pigweed) weedkilling efficacy grade (redroot pigweed [34]): 3 (weed kill ratio 40% or more, less than 70%)
